Test results reported in ChEMBL document CHEMBL1125264, “2'-Deoxy-2'-methylenecytidine and 2'-deoxy-2',2'-difluorocytidine 5'-diphosphates: potent mechanism-based inhibitors of ribonucleotide reductase” (J Med Chem, 1991).

How the values were obtained:
[1] = system: Ribonucleoside-diphosphate reductase (Escherichia coli); experiment: Compound was evaluated for time-dependent inactivation of rRibonucleotide diphosphate reductase (RDPR) in Escherichia coli
[2] = molecular target: Ribonucleoside-diphosphate reductase (Escherichia coli); experiment: Compound was evaluated for time-dependent inactivation of Ribonucleotide diphosphate reductase (RDPR) in Escherichia coli

- K inact [1]: 0.015 s⁻¹
- Ki [2]: 830 µM
Compound: C=C1[C@H](n2ccc(=O)[nH]c2=O)O[C@H](COP(=O)(O)OP(=O)(O)O)[C@H]1O
